Measured values as given in US20230022724A1, “NOVEL IMIDAZOPYRAZINE DERIVATIVES” (Hoffmann-La Roche Inc., priority 2018, published 2023).
Structures can show the parent of a compound that is named as a salt.

System: Acinetobacter baumannii ATCC17961
Assay: Antimicrobial susceptibility testing: 90% growth inhibitory concentration (IC90) determination
Format: cell-based
Settings: Acinetobacter baumannii ATCC17961, Iso-Sensitest broth, OD 600 nm over 16 h
Outline: (§1)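 Compounds in twofold series (e.g. 50 to 0.097 μM final) in Iso-Sensitest broth, inoculated at ~5×10^5 CFU/ml, incubated at 35±2° C. OD600 was read every 20 minutes for 16 h. IC90 was derived from growth inhibition during logarithmic phase.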

Row | Compound | IC90
1 | CNCC1(O)CCN(C(=O)c2ccc(Nc3nccn4c(-c5ccc(OC)c(F)c5F)cnc34)cc2Cl)CC1 [Example 111, (2-chloro-4-((3-(2,3-difluoro-4-methoxyphenyl)imidazo[1,2-a]pyrazin-8-yl)amino)phenyl)(4-hydroxy-4-((methylamino)methyl)piperidin-1-yl)methanone] | 68 nM
2 | N#CCOc1ccc(-c2cnc3c(Nc4ccc(C(=O)N5CCN(C(=O)[C@@H]6C[C@@H](O)CN6)CC5)c(Cl)c4)nccn23)c(Cl)c1F [Example 33, 2-[3-chloro-4-[8-[3-chloro-4-[4-[(2S,4R)-4-hydroxypyrrolidine-2-carbonyl]piperazine-1-carbonyl]anilino]imidazo[1,2-a]pyrazin-3-yl]-2-fluoro-phenoxy]acetonitrile Formate] | 33.9 nM
3 | COc1ccc(-c2cnc3c(Nc4cc(F)c(C(=O)N5CCN(C(=O)[C@@H]6C[C@@H](O)CN6)CC5)c(Br)c4)nccn23)c(F)c1F [Example 109, (4-(2-bromo-4-((3-(2,3-difluoro-4-methoxyphenyl)imidazo[1,2-a]pyrazin-8-yl)amino)-6-fluorobenzoyl)piperazin-1-yl)((2S,4R)-4-hydroxypyrrolidin-2-yl)methanone dihydrochloride] | 69 nM
4 | COc1ccc(-c2cnc3c(Nc4cc(F)c(C(=O)N5CCN(C(=O)[C@@H]6C[C@@H](O)CN6)CC5)c(F)c4)nccn23)c(F)c1F [Example 49, (4-(4-((3-(2,3-difluoro-4-methoxyphenyl)imidazo[1,2-a]pyrazin-8-yl)amio)-2,6-difluorobenzoyl)piperazin-1-yl)((2S,4R)-4-hydroxypyrrolidin-2-yl)methanone dihydrochloride] | 72.2 nM
5 | O=C(c1ccc(Nc2nccn3c(-c4ccc(OC(F)F)c(F)c4F)cnc23)cc1Cl)N1CCN(C(=O)[C@@H]2C[C@@H](O)CN2)CC1 [Example 113, [2-chloro-4-[[3-[4-(difluoromethoxy)-2,3-difluoro-phenyl]imidazo[1,2-a]pyrazin-8-yl]amino]phenyl]-[4-[(2S,4R)-4-hydroxypyrrolidine-2-carbonyl]piperazin-1-yl]methanone formate] | 22 nM
6 | O=C(c1ccc(Nc2nccn3c(-c4ccc(OC(F)F)c(F)c4F)cnc23)cc1F)N1CCN(C(=O)C2CCN(CC3CCNC3)CC2)CC1 (centres unmarked) [Example 114, (4-(4-((3-(4-(difluoromethoxy)-2,3-difluorophenyl)imidazo[1,2-a]pyrazin-8-yl)amino)-2-fluorobenzoyl)piperazin-1-yl)(1-(pyrrolidin-3-ylmethyl)piperidin-4-yl)methanone bis(2,2,2-trifluoroacetate)] | 56 nM
7 | O=C(c1ccc(Nc2nccn3c(-c4ccc(OCF)c(F)c4F)cnc23)cc1Cl)N1CCN(C(=O)[C@@H]2C[C@@H](O)CN2)CC1 [Example 112, [2-chloro-4-[[3-[2,3-difluoro-4-(fluoromethoxy)phenyl]imidazo [1,2-a]pyrazin-8-yl]amino]phenyl]-[4-[(2S,4R)-4-hydroxypyrrolidine-2-carbonyl]piperazin-1-yl]methanone trifluoroacetate] | 22 nM
8 | COc1ccc(-c2cnc3c(Nc4cc(F)c(C(=O)N5CCN(C(=O)[C@@H]6C[C@@H](O)CN6)CC5)c(Cl)c4)nccn23)c(F)c1F [Example 50, (4-(2-chloro-4-((3-(2,3-difluoro-4-methoxyphenyl)imidazo[1,2-a]pyrazin-8-yl)amino)-6-fluorobenzoyl)piperazin-1-yl)((2S,4R)-4-hydroxypyrrolidin-2-yl)methanone dihydrochloride] | 82.1 nM
9 | N#CCOc1ccc(-c2cnc3c(Nc4ccc(C(=O)N5CCN(C(=O)CN6CCC(C(=O)O)C6)CC5)c(Cl)c4)nccn23)c(F)c1F (centres unmarked) [Example 108, 1-(2-(4-(2-chloro-4-((3-(4-(cyanomethoxy)-2,3-difluorophenyl)imidazo[1,2-a]pyrazin-8-yl)amino)benzoyl)piperazin-1-yl)-2-oxoethyl)pyrrolidine-3-carboxylic acid trifluoroacetate] | 350 nM
10 | CNCC1(O)CCN(C(=O)c2ccc(Nc3nccn4c(-c5ccc(OC)c(F)c5)cnc34)cc2Cl)CC1 [Example 110, (2-chloro-4-((3-(3-fluoro-4-methoxyphenyl)imidazo[1,2-a]pyrazin-8-yl)amino)phenyl)(4-hydroxy-4-((methylamino)methyl)piperidin-1-yl)methanone] | 80 nM
11 | COc1ccc(-c2cnc3c(Nc4ccc(C(=O)N5CCN(C(=O)[C@@H]6C[C@@H](O)CN6)CC5)c(Cl)c4)nccn23)c(F)c1F [Example 35, [2-chloro-4-[[3-(2,3-difluoro-4-methoxy-phenyl)imidazo[1,2-a]pyrazin-8-yl]amino]phenyl]-[4-[(2S,4R)-4-hydroxypyrrolidine-2-carbonyl]piperazin-1-yl]methanone formate] | 41.2 nM

System: Acinetobacter baumannii ATCC17978
Assay: as above
Format: cell-based
Settings: 90% growth inhibitory concentration, Acinetobacter baumannii ATCC17978, Iso-Sensitest broth, OD 600 nm over 16 h; read-out: ATCC17978 IC90
Outline: as §1

Row | Compound | IC90
12 | CN(C)CCN1CCN(C(=O)c2ccc(Nc3nccn4c(-c5ccc(OCC#N)c(F)c5F)cnc34)cc2Cl)CC1 [Example 84, 2-[4-[8-[3-chloro-4-[4-[2-(dimethylamino)ethyl]piperazine-1-carbonyl]anilino]imidazo[1,2-a]pyrazin-3-yl]-2,3-difluorophenoxy]acetonitrile; 2,2,2-trifluoroacetic acid] | 110 nM

Same assay, conditions: Acinetobacter baumannii, ATCC17978, 16 h, 90% growth inhibitory concentration, Acinetobacter baumannii ATCC17978, Iso-Sensitest broth, OD 600 nm over 16 h; read-out: ATCC17978 IC90

Row | Compound | IC90
13 | COc1ccc(-c2cnc3c(Nc4ccc(C(=O)N5CCC(CN)CC5)c(Cl)c4)nccn23)cc1F [Example 4, (4-(Aminomethyl)piperidin-1-yl)(2-chloro-4-((3-(3-fluoro-4-methoxyphenyl)imidazo[1,2-a]pyrazin-8-yl)amino)phenyl)methanone hydrochloride] | 120 nM
14 | COc1ccc(-c2cnc3c(Nc4ccc(C(=O)N5CCC(O)(CC(=O)N(C)C)CC5)c(Cl)c4)nccn23)cc1F [Example 106, 2-(1-(2-chloro-4-((3-(3-fluoro-4-methoxyphenyl)imidazo[1,2-a]pyrazin-8-yl)amino)benzoyl)-4-hydroxypiperidin-4-yl)-N,N-dimethylacetamide] | 540 nM
15 | COc1ccc(-c2cnc3c(Nc4ccc(C(=O)N5CCN(CCN6CCC6)CC5)c(Cl)c4)nccn23)cc1F [Example 57, [4-[2-(azetidin-1-yl)ethyl]piperazin-1-yl]-[2-chloro-4-[[3-(3-fluoro-4-methoxyphenyl)imidazo[1,2-a]pyrazin-8-yl]amino]phenyl]methanone] | 330 nM

Same assay, conditions: Acinetobacter baumannii, ATCC17978, 16 h, read-out: ATCC17978 IC90

Row | Compound | IC90
16 | COc1ccc(-c2cnc3c(Nc4ccc(C(=O)N5CCC(C(=O)N6CCOC(CN)C6)CC5)c(Cl)c4)nccn23)cc1F (centres unmarked) [Example 52, [4-[2-(aminomethyl)morpholine-4-carbonyl]piperidin-1-yl]-[2-chloro-4-[[3-(3-fluoro-4-methoxyphenyl)imidazo[1,2-a]pyrazin-8-yl]amino]phenyl]methanone; hydrochloride] | 88 nM
17 | N#CCOc1ccc(-c2cnc3c(Nc4ccc(C(=O)N5CCN(CCN6CCCC6CO)CC5)c(Cl)c4)nccn23)c(F)c1F (centres unmarked) [Example 93, 2-[4-[8-[3-chloro-4-[4-[2-[2-(hydroxymethyl)pyrrolidin-1-yl]ethyl]piperazine-1-carbonyl]anilino]imidazo[1,2-a]pyrazin-3-yl]-2,3-difluorophenoxy]acetonitrile; 2,2,2-trifluoroacetic acid] | 53 nM
